Converted amounts (≈) assume the structure as drawn. “And” between values parts separate entries of the source, which are not always exact repeats. Identical values can stand only once. Like-named read-outs stand apart in the source and are kept apart here. Residues, ends and D or L forms follow the SMILES beside them.
Experiments:
[1] = Acute toxicity in mice (maximum tolerated dose, IV bolus); assay type: in vivo, mouse; conditions: mouse, in vivo, iv, single IV bolus dose, replicates 1-4; read-out: MTD, single replicate
Protocol: (§1) Lipopeptide solutions were prepared in 0.9% saline and stored at 4 °C before use. Swiss mice (female, 7-week-old, 22–28 g) were used in the study. A mouse was administered an intravenous bolus of the lipopeptide (mg/kg free base) through a lateral tail vein (≤0.1 mL). After the injection, the mouse was released back into the cage and monitored for clinical signs of toxicity from 0 to 24 h after injection as follows: every 10 min in the first 2 h, every half hour from 2 to 4 h, every hour from 4 to 12 h, and every 2 h from 12 to 24 h.

Swiss mice = test: as above; assay type: in vivo, mouse; conditions: replicates 1-4
Protocol: as §1

P. aeruginosa ATCC 27853 [2] = test: Neutropenic mouse bloodstream infection model; assay type: in vivo; conditions: single IV dose 4 mg/kg; for Log10 CFU/mL blood at 4 h, Mean / Δlog10 CFU/mL blood (mean) / Log10 CFU/mL blood at 4 h, single mouse: 4 h; for Δlog10 CFU/mL blood (mean): treated minus control, mean of replicates; for Delta Log10 CFU/mL blood at 4 h, single mouse: treated mouse minus mean of vehicle mice
Outline: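 Female Swiss mice made neutropenic with cyclophosphamide (150 mg/kg day −4, 100 mg/kg day −1), infected IV with 50 µL of 4 × 10^8 CFU/mL. Lipopeptide 4 mg/kg (free base) IV at 2 h post-inoculation, n = 3. Efficacy = Δlog10 CFU/mL blood versus saline at 4 h post-dose.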

A. baumannii ATCC 19606 = assay type: cell-based, Acinetobacter baumannii
Outline: (§2)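 Each strain is tested in cation-adjusted Mueller–Hinton broth using the micro-dilution technique, and growth inhibition gives the MIC.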

A. baumannii FADDI-AB034 = assay type: cell-based, Acinetobacter baumannii
Outline: (§3)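 Broth microdilution, CaMHB; MIC read as the antibacterial endpoint against ATCC reference strains and clinical isolates.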

A. baumannii FADDI-AB030 = assay type: cell-based, Acinetobacter baumannii
Outline: as §3

Swiss mice, kidney = test: Nephrotoxicity in mice (kidney histopathology); assay type: in vivo, mouse; conditions: for Kidney histopathology (SQS Score): 72 mg/kg/d subcutaneously in six divided doses every 2 h, n = 3; for Kidney histopathology, mice with the SQS score: mouse, in vivo
Outline: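 Female Swiss mice (7-week-old, 22–28 g) received lipopeptides in saline either s.c. at 12 mg/kg ×6 every 2 h (total 72 mg/kg, n = 3) or i.p. at 20 or 25 mg/kg ×6 every 2 h (total 120 mg/kg, n = 6; 150 mg/kg, n = 3). Right kidney collected 20 h after last dose, fixed in 10% buffered formalin (pH 7.4), histology scored blinded.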

[3] = test system: P. aeruginosa FADDI-PA025; assay type: cell-based, Pseudomonas aeruginosa
Outline: as §3

[4] = test system: P. aeruginosa FADDI-PA038; assay type: cell-based, Pseudomonas aeruginosa
Outline: as §3

P. aeruginosa ATCC 27853 [5] = assay type: cell-based, Pseudomonas aeruginosa
Outline: as §2

[6] = test system: K. pneumoniae FADDI-KP065; assay type: cell-based, Klebsiella pneumoniae
Outline: as §3

[7] = test system: K. pneumoniae FADDI-KP032; assay type: cell-based, Klebsiella pneumoniae
Outline: as §3

[8] = Distribution, accumulation and metabolism in mouse kidneys (ME-SALDI-MS imaging, histology); assay type: in vivo; conditions: 10 μmol/kg SC; for kidney histology, SQS scores: 6 doses Day 1 and 3 doses Day 2; for level at time molar: female, Swiss, mouse, in vivo, 10 umol/kg, 6 doses Day 1 and 3 doses Day 2, 2 h after last dose, read-out: Concentration in the kidney cortex region
Protocol: At 2 h after the last dose on Day 2, mice were rapidly euthanized. The left kidney was collected, flash-frozen in liquid nitrogen, and stored at -80 C for MS imaging analysis. The right kidney was fixed in 10% formalin for histological examination (Histopathology and Organ Pathology Unit at the University of Melbourne). The level of histological damage to the kidneys was graded as previously described. […] A total of 1 μL was spotted onto electrochemically etched, porous-silicon semiconductor substrates for desorption/ionization on silicon (DIOS)[39]. […] For lipopeptide distribution in mouse kidneys, serially sectioned 8-μm frozen slices of the kidney were loaded onto DIOS substrates and coated with a thin layer of α-CHCA using a matrix sprayer (TM-Sprayer, HTX) for MSI analysis. […] Mounted tissue was scanned for imaging alignment (Epson Perfection […]) and calibrated as previously described. Resulting polymyxin maps were visualized and normalized against the total ion current (TIC) of each section using IonView software (Shimadzu). Lipopeptide accumulation in mouse kidneys was determined by simultaneous […] analysis of kidney tissue from treated animals and serial dilutions of the drug deposited on control kidney tissue. […] The signal intensities were compared to the corresponding concentration standard curve to calculate the concentration of lipopeptide present. Putative metabolites in the kidneys treated with lipopeptides were identified by […]. Control kidney sections were used to differentiate lipopeptide metabolites from endogenous metabolites and MS/MS data from lipopeptide standards were used to differentiate lipopeptide metabolites from the parent ion generated via CID processed in the acquisition software (MALDI Solutions, Shimadzu). Levels of accumulated lipopeptide metabolites were determined by normalization to the parent ion in MSI data.

CCCCCC(=O)N[C@@H](CCN)C(=O)N[C@H](C(=O)N[C@@H](CN)C(=O)N[C@H]1CCNC(=O)[C@H]([C@@H](C)O)NC(=O)[C@H](CCN)NC(=O)[C@H](CCN)NC(=O)[C@H](CC)NC(=O)[C@@H](CC(C)C)NC(=O)[C@H](CCN)NC1=O)[C@@H](C)O [Lipopeptide F342] (HELM PEPTIDE1{[CCCCCC(=O)[*:2]].[Dab].T.[NC[C@H](N[*:1])C(=O)[*:2]].[Dab].[Dab].[dL].[Abu].[Dab].[Dab].T}$PEPTIDE1,PEPTIDE1,5:R3-11:R2$$$V2.0)
MTD [1]: 20 mg/kg
MTD, single replicate (Swiss mice): 18.4 mg/kg
Log10 CFU/mL blood at 4 h, Mean (P. aeruginosa ATCC 27853 [2]): 7.44 Log10 CFU/mL blood
Δlog10 CFU/mL blood (mean) (P. aeruginosa ATCC 27853 [2]): 0.17 log10 CFU/mL blood
Log10 CFU/mL blood at 4 h, single mouse (P. aeruginosa ATCC 27853 [2]; 4 mg/kg): 7.29 Log10 CFU/mL blood and 7.60 Log10 CFU/mL blood
Delta Log10 CFU/mL blood at 4 h, single mouse (P. aeruginosa ATCC 27853 [2]; 4 mg/kg): 0.0179 Log10 CFU/mL blood and 0.33 Log10 CFU/mL blood
MIC A. baumannii ATCC 19606 (A. baumannii ATCC 19606; ATCC 19606): 2 µg/mL (≈ 1.84 µM)
MIC A. baumannii FADDI-AB034 (A. baumannii FADDI-AB034; FADDI-AB034): 1 µg/mL (≈ 0.921 µM)
MIC A. baumannii FADDI-AB030 (A. baumannii FADDI-AB030; FADDI-AB030): 1 µg/mL (≈ 0.921 µM)
Kidney histopathology (SQS Score) (Swiss mice, kidney): 0 (SQS 0 = no significant change (overall score, <1))
Kidney histopathology, mice with the SQS score (Swiss mice, kidney): 3/3
MIC P. aeruginosa FADDI-PA025 ([3]; FADDI-PA025): 2 µg/mL (≈ 1.84 µM)
MIC P. aeruginosa FADDI-PA038 ([4]; FADDI-PA038): 1 µg/mL (≈ 0.921 µM)
MIC P. aeruginosa ATCC 27853 (P. aeruginosa ATCC 27853 [5]; ATCC 27853): 0.5 µg/mL (≈ 0.461 µM)
MIC, No Survanta (P. aeruginosa ATCC 27853 [5]; ATCC 27853): 1 µg/mL (≈ 0.921 µM)
MIC K. pneumoniae FADDI-KP065 ([6]; FADDI-KP065): 0.5 µg/mL (≈ 0.461 µM)
MIC K. pneumoniae FADDI-KP032 ([7]; FADDI-KP032): 0.25 µg/mL (≈ 0.23 µM)

CC[C@@H]1NC(=O)[C@@H](CC(C)C)NC(=O)[C@H](CCN)NC(=O)[C@@H](NC(=O)[C@H](CN)NC(=O)[C@@H](NC(=O)[C@H](CCN)NC(=O)c2ccccc2)[C@@H](C)O)CCNC(=O)[C@H]([C@@H](C)O)NC(=O)[C@H](CCN)NC(=O)[C@H](CCN)NC1=O [Lipopeptide F379] (HELM PEPTIDE1{[O=C(c1ccccc1)[*:2]].[Dab].T.[NC[C@H](N[*:1])C(=O)[*:2]].[Dab].[Dab].[dL].[Abu].[Dab].[Dab].T}$PEPTIDE1,PEPTIDE1,5:R3-11:R2$$$V2.0)
MTD [1]: 26 mg/kg
MTD, single replicate (Swiss mice): 23 mg/kg and 21.3 mg/kg and 16 mg/kg
Log10 CFU/mL blood at 4 h, Mean (P. aeruginosa ATCC 27853 [2]): 5.27 Log10 CFU/mL blood
Δlog10 CFU/mL blood (mean) (P. aeruginosa ATCC 27853 [2]; 4 mg/kg): −2.67 log10 CFU/mL blood
Log10 CFU/mL blood at 4 h, single mouse (P. aeruginosa ATCC 27853 [2]; 4 mg/kg): 5.36 Log10 CFU/mL blood and 5.17 Log10 CFU/mL blood
Delta Log10 CFU/mL blood at 4 h, single mouse (P. aeruginosa ATCC 27853 [2]; 4 mg/kg): -2.58 Log10 CFU/mL blood and -2.77 Log10 CFU/mL blood
MIC A. baumannii ATCC 19606 (A. baumannii ATCC 19606): 8 µg/mL (≈ 7.33 µM)
MIC A. baumannii FADDI-AB034 (A. baumannii FADDI-AB034; carbapenem-resistant isolate): 8 µg/mL (≈ 7.33 µM)
MIC A. baumannii FADDI-AB030 (A. baumannii FADDI-AB030; carbapenem-resistant isolate): 2 µg/mL (≈ 1.83 µM)
MIC P. aeruginosa FADDI-PA025 ([3]; MDR clinical isolate): >32 µg/mL
MIC P. aeruginosa FADDI-PA038 ([4]; carbapenem-resistant isolate): 4 µg/mL (≈ 3.67 µM)
MIC P. aeruginosa ATCC 27853 (P. aeruginosa ATCC 27853 [5]): 1 µg/mL (≈ 0.916 µM)
MIC K. pneumoniae FADDI-KP065 ([6]; carbapenem-resistant isolate): 2 µg/mL (≈ 1.83 µM)
MIC K. pneumoniae FADDI-KP032 ([7]; carbapenem-resistant isolate): 2 µg/mL (≈ 1.83 µM)

CC[C@@H]1NC(=O)[C@@H](CC(C)C)NC(=O)[C@H](CCN)NC(=O)[C@@H](NC(=O)[C@H](CN)NC(=O)[C@@H](NC(=O)[C@H](CCN)NC(=O)c2ccc(F)cc2Cl)[C@@H](C)O)CCNC(=O)[C@H]([C@@H](C)O)NC(=O)[C@H](CCN)NC(=O)[C@H](CCN)NC1=O [Lipopeptide F449] (HELM PEPTIDE1{[O=C(c1ccc(F)cc1Cl)[*:2]].[Dab].T.[NC[C@H](N[*:1])C(=O)[*:2]].[Dab].[Dab].[dL].[Abu].[Dab].[Dab].T}$PEPTIDE1,PEPTIDE1,5:R3-11:R2$$$V2.0)
Log10 CFU/mL blood at 4 h, Mean (P. aeruginosa ATCC 27853 [2]): 5.26 Log10 CFU/mL blood
Δlog10 CFU/mL blood (mean) (P. aeruginosa ATCC 27853 [2]; 4 mg/kg): −2.32 log10 CFU/mL blood
Log10 CFU/mL blood at 4 h, single mouse (P. aeruginosa ATCC 27853 [2]; 4 mg/kg): 5.17 Log10 CFU/mL blood and 5.18 Log10 CFU/mL blood and 5.44 Log10 CFU/mL blood
Delta Log10 CFU/mL blood at 4 h, single mouse (P. aeruginosa ATCC 27853 [2]; 4 mg/kg): -2.41 Log10 CFU/mL blood and -2.40 Log10 CFU/mL blood and -2.14 Log10 CFU/mL blood
MIC A. baumannii ATCC 19606 (A. baumannii ATCC 19606; ATCC 19606): 4 µg/mL (≈ 3.5 µM)
MIC A. baumannii FADDI-AB034 (A. baumannii FADDI-AB034; FADDI-AB034): 1 µg/mL (≈ 0.874 µM)
MIC A. baumannii FADDI-AB030 (A. baumannii FADDI-AB030; FADDI-AB030): 1 µg/mL (≈ 0.874 µM)
Kidney histopathology (SQS Score) (Swiss mice, kidney): 0 (SQS 0 = no significant change (overall score, <1))
Kidney histopathology, mice with the SQS score (Swiss mice, kidney): 3/3
MIC P. aeruginosa FADDI-PA025 ([3]; FADDI-PA025): 2 µg/mL (≈ 1.75 µM)
MIC P. aeruginosa FADDI-PA038 ([4]; FADDI-PA038): 1 µg/mL (≈ 0.874 µM)
MIC P. aeruginosa ATCC 27853 (P. aeruginosa ATCC 27853 [5]; ATCC 27853): 0.5 µg/mL (≈ 0.437 µM)
MIC K. pneumoniae FADDI-KP065 ([6]; FADDI-KP065): 0.25 µg/mL (≈ 0.219 µM)
MIC K. pneumoniae FADDI-KP032 ([7]; FADDI-KP032): 0.25 µg/mL (≈ 0.219 µM)

CC[C@H](C)CCCCC(=O)N[C@@H](CCN)C(=O)N[C@H](C(=O)N[C@@H](CCN)C(=O)N[C@H]1CCNC(=O)[C@H]([C@@H](C)O)NC(=O)[C@H](CCN)NC(=O)[C@H](CCN)NC(=O)[C@H](CC(C)C)NC(=O)[C@@H](CC(C)C)NC(=O)[C@H](CCN)NC1=O)[C@@H](C)O [colistin A] (HELM PEPTIDE1{[CC[C@H](C)CCCCC(=O)[*:2]].[Dab].T.[Dab].[Dab].[Dab].[dL].L.[Dab].[Dab].T}$PEPTIDE1,PEPTIDE1,5:R3-11:R2$$$V2.0)
kidney histology, SQS scores [8]: +5 (SQS + 5 = severe damage (overall score, >60))
level at time molar [8]: 86.7 µM

CC[C@H](C)CCCCC(=O)N[C@@H](CCN)C(=O)N[C@H](C(=O)N[C@@H](CCN)C(=O)N[C@H]1CCNC(=O)[C@H]([C@@H](C)O)NC(=O)[C@H](CCN)NC(=O)[C@H](CCN)NC(=O)[C@H](CC(C)C)NC(=O)[C@@H](Cc2ccccc2)NC(=O)[C@H](CCN)NC1=O)[C@@H](C)O [polymyxin B1] (HELM PEPTIDE1{[CC[C@H](C)CCCCC(=O)[*:2]].[Dab].T.[Dab].[Dab].[Dab].[dF].L.[Dab].[Dab].T}$PEPTIDE1,PEPTIDE1,5:R3-11:R2$$$V2.0)
kidney histology, SQS scores [8]: +5 (SQS + 5 = severe damage (overall score, >60))
level at time molar [8]: 38.2 µM

Reference: paper PMC8956739, “A synthetic lipopeptide targeting top-priority multidrug-resistant Gram-negative pathogens” (Nature Communications, 2022)
